≈ marks a conversion by molar mass, not a printed value.
Experiments:
Assay type in all cases: functional
[1] = Antioxidant activity assessed as superoxide radical scavenging activity
[2] = test system: Radical scavenging activity; assay: Antioxidant activity assessed as DPPH free radical scavenging activity
[3] = Antioxidant activity assessed as inhibition of H2O2/Fe2+-induced radical generation
Mus musculus [4] = assay: Hepatoprotective activity in CD1 Mus musculus (mouse) assessed as reduction of CCl4-induced serum alanine aminotransferase level at 20 mg/kg, po administered 30 min before and 3 hr after CCl4 challenge measured 48 hr post CCl4 challenge (reference value: 296 +/- 7.93 IU/l)
Mus musculus [5] = assay: Nephroprotective activity in CD1 Mus musculus (mouse) assessed as reduction of CCl4-induced plasma urea level at 20 mg/kg, po administered 30 min before and 3 hr after CCl4 challenge measured 48 hr post CCl4 challenge (reference value: 61.56 +/- 3.46 mg/dl)
Mus musculus [6] = assay: Hepatoprotective activity in CD1 Mus musculus (mouse) intoxicated with CCl4 assessed as increase in total protein level in serum at 20 mg/kg, po administered 30 min before and 3 hr after CCl4 challenge measured 48 hr post CCl4 challenge (reference value: 61.80 +/- 5.48 g/l)
Mus musculus [7] = assay: Hepatoprotective activity in CD1 Mus musculus (mouse) assessed as reduction of CCl4-induced serum alkaline phosphatase level at 20 mg/kg, po administered 30 min before and 3 hr after CCl4 challenge measured 48 hr post CCl4 challenge (reference value: 239.1 +/- 5.98 IU/l)
Mus musculus [8] = assay: Hepatoprotective activity in CD1 Mus musculus (mouse) assessed as reduction of CCl4-induced total cholesterol level in serum at 20 mg/kg, po administered 30 min before and 3 hr after CCl4 challenge measured 48 hr post CCl4 challenge (reference value: 172.57 +/- 4.36 md/dl)
Mus musculus [9] = assay: Hepatoprotective activity in CD1 Mus musculus (mouse) assessed as reduction of CCl4-induced serum aspartate aminotransferase level at 20 mg/kg, po administered 30 min before and 3 hr after CCl4 challenge measured 48 hr post CCl4 challenge (reference value: 487.3 +/- 6.21 IU/l)
Mus musculus [10] = assay: Nephroprotective activity in CD1 Mus musculus (mouse) assessed as reduction of CCl4-induced plasma creatinine level at 20 mg/kg, po administered 30 min before and 3 hr after CCl4 challenge measured 48 hr post CCl4 challenge (reference value: 1.2 +/- 0.006 mg/dl)

SMILES	IC50 [1] [µg/mL]	IC50 [2] [µg/mL]	IC50 [3] [µg/mL]	Activity (Mus musculus [4]) [IU/L]	Activity (Mus musculus [5]) [mg/dL]	Activity (Mus musculus [6]) [g/L]	Activity (Mus musculus [7]) [IU/L]	Activity (Mus musculus [8]) [mg/dL]	Activity (Mus musculus [9]) [IU/L]	Activity (Mus musculus [10]) [mg/dL]
O=c1c(O)c(-c2ccc(O)c(O)c2)oc2cc(O)cc(O)c12 [QUERCETIN]	20.1 (≈ 66.5 µM)	8.2 (≈ 27.1 µM)	14.6 (≈ 48.3 µM)							
COc1cc(O)cc2c1C(=O)[C@H](O[C@@H]1O[C@H](C)[C@@H](O)[C@H](O)[C@@H]1O)[C@@H](c1cc(O)c(OC)c(O)c1)O2	35.2 (≈ 71.2 µM)	11.6 (≈ 23.5 µM)	26.7 (≈ 54 µM)	124.2	47.26	71.57	137.5	136.8	189.4	0.71
COc1ccc([C@@H]2CC(=O)c3c(OC)cc(O[C@@H]4O[C@H](C)[C@@H](O)[C@H](O)[C@@H]4O)cc3O2)cc1O	39.76 (≈ 86 µM)	21.4 (≈ 46.3 µM)	32.7 (≈ 70.7 µM)	143.6	46.62	70.24	149.6	140.13	200.6	0.69
C[C@H]1O[C@@H](Oc2cc(O)c3c(c2)O[C@H](c2cc(O)c(O)c(O)c2)CC3=O)[C@@H](O)[C@@H](O)[C@@H]1O	25.8 (≈ 57.3 µM)	9.3 (≈ 20.6 µM)	18.2 (≈ 40.4 µM)	103.4	51.1	76.1	118.1	124.34	145.7	0.76

Now from value to compound, other results behind:

IC50 [1] [µg/mL]	IC50 [2] [µg/mL]	IC50 [3] [µg/mL]	SMILES	Activity (Mus musculus [4]) [IU/L]	Activity (Mus musculus [5]) [mg/dL]	Activity (Mus musculus [6]) [g/L]	Activity (Mus musculus [7]) [IU/L]	Activity (Mus musculus [8]) [mg/dL]	Activity (Mus musculus [9]) [IU/L]	Activity (Mus musculus [10]) [mg/dL]
43.12 (≈ 66.1 µM)	24.8 (≈ 38 µM)	36.42 (≈ 55.8 µM)	COc1ccc(-c2oc3cc(O[C@@H]4O[C@H](CO)[C@@H](O)[C@H](O[C@@H]5O[C@@H](C)[C@H](O)[C@@H](O)[C@H]5O)[C@H]4O)c(OC)c(O)c3c(=O)c2OC)cc1	152.4	44.78	68.23	156.5	143.28	219.4	0.67
30.4 (≈ 48.5 µM)	17.5 (≈ 27.9 µM)	22.4 (≈ 35.8 µM)	COc1c(O)cc([C@H]2Oc3cc(O)cc(O)c3C(=O)[C@@H]2O[C@@H]2O[C@H](C)[C@@H](O)[C@H](O)[C@@H]2O[C@@H]2O[C@H](C)[C@@H](O)[C@H](O)[C@@H]2O)cc1O	115.1	49.43	74.76	128.3	129.31	161.6	0.74

Reference: ChEMBL document CHEMBL3046463, “Antihepatotoxic, nephroprotective, and antioxidant activities of phenolic compounds from Satureja macrostema leaves against carbon tetrachloride-induced hepatic damage in mice” (Med Chem Res, 2013)
